Molecules are shown by their SMILES.

The values that follow come from patent EP2077092A2, “System and Methods for Screening or Analyzing Targets” (Taipei Veterans General Hospital, priority 2007, dated 2009).

Details of data set [1]: species or system Sprague-Dawley rats. Conditions: in vivo, iv, 30 mg/kg, 360 min. As for the experimental part:
Adult, male Sprague-Dawley rats (280-350 g) were obtained from the Laboratory Animal Center at National Yang-Ming University (Taipei, Taiwan). These animals were specifically pathogen-free and were allowed to acclimate to their environmentally controlled quarters (24 ± 1°C and 12:12 h light-dark cycle) for at least 5 days before the experiments began. At the start of experiments, the rats were anesthetized with urethane 0.8 g/ml and chloralose 0.08 g/ml ([…], i.p.). Throughout the experimental period, anesthesia was maintained by administering one quarter of the initial dose at each hour. The experimental animals were kept warm with a heating pad throughout the experiments.
The HPLC system consisted of a chromatographic pump (BAS PM-80, Bioanalytical System, West Lafayette, IN, USA), an on-line injector (CMA/160, Stockholm, Sweden) equipped with a 20 µl sample loop and a UV detector (Soma S-3702, Tokyo, Japan). […] Output signal from the HPLC-UV was recorded using an EZChrom chromatographic data system (Scientific Software, San Ramon, CA, USA). […]
For in vivo recovery, normal saline solution containing cefoperazone (50 or 100 µg/ml) were pumped through the probes at a constant flow rate (2 µl/min) using the infusion pump (CMA/100). After a stabilization period of 2 h, the inlet (Cin) and outlet (Cout) concentrations of cefoperazone were determined by HPLC. […]

A further data set has as its system IL-1β. Nature of the data set: IL-1β ELISA in LPS-treated NSCs. In kind it is cell-based, Sprague-Dawley (SD) rats. The settings on record: siRNA or U0126 (40 µM) added to LPS- and IM-treated NSCs. A general note: An ELISA detects its analyte on a solid surface through an enzyme-linked reagent.
The test system of data set [2] is NSCs. Kind of data set: Immunofluorescent assay of serotonin (5-HT)-positive cells in differentiating NSCs. In kind it is cell-based, Sprague-Dawley (SD) rats. The settings on record: siRNA or U0126 added, Day 7 culture of IM-treated NSCs.
The subject of a further data set is IL-6. Kind of data set: IL-6 ELISA in LPS-treated NSCs. Format: cell-based, Sprague-Dawley (SD) rats. Conditions: siRNA or U0126 (40 µM) added to LPS- and IM-treated NSCs.
Data set [3] concerns NSCs. Kind of data set: Immunofluorescent assay of MAP-2-positive cells in differentiating NSCs. Format: cell-based, Sprague-Dawley (SD) rats. The settings on record: siRNA or U0126 added, Day 7 culture of IM-treated NSCs.
In data set [4] the test system is NSCs. Nature of the data set: Microdialysis with HPLC-ECD of 5-HT in the culture medium of IM-treated NSCs. Format: cell-based, Sprague-Dawley (SD) rats. Conditions: siRNA or U0126 added, Day 7 and Day 14, p<0.05.
A further data set has as its system caspase 3. Nature of the data set: Caspase 3 activity ELISA in LPS-treated NSCs. Format: cell-based, Sprague-Dawley (SD) rats. Conditions: siRNA or U0126 (40 µM) added to LPS- and IM-treated NSCs.
The next data set concerns caspase 8. Kind of data set: Caspase 8 activity ELISA in LPS-treated NSCs. Format: cell-based, Sprague-Dawley (SD) rats. The settings on record: siRNA or U0126 (40 µM) added to LPS- and IM-treated NSCs.
For data set [5], the system named is LPS-treated NSCs. Kind of data set: TUNEL assay of LPS-induced apoptosis in NSCs. The settings on record: siRNA or U0126 (40 µM) added to LPS- and IM-treated NSCs. Format: cell-based, Sprague-Dawley (SD) rats.
The next data set deals with TNF-α. Nature of the data set: TNF-α ELISA in LPS-treated NSCs. In kind it is cell-based, Sprague-Dawley (SD) rats. The settings on record: siRNA or U0126 (40 µM) added to LPS- and IM-treated NSCs.
Data set [6] has as its system LPS-treated NSCs. Nature of the data set: MTT cell survival of LPS-treated NSCs. In kind it is cell-based, Sprague-Dawley (SD) rats. Conditions: siRNA or U0126 added to LPS- and IM-treated NSCs.
The next data set relates to Bcl-2 protein. Nature of the data set: Bcl-2 protein expression in NSCs by western blot and immunohistochemistry. Format: cell-based, Sprague-Dawley (SD) rats. Conditions: siRNA or MAPK inhibitor added to IM-treated NSCs. A general note: In western blotting, separated proteins are transferred to a membrane and probed.
The next data set deals with c-FLIPL. Nature of the data set: c-FLIP protein expression in fluoxetine-treated NSCs (Western analysis). In kind it is cell-based, Sprague-Dawley rats. The settings on record: FL-treated NSCs. As for the experimental part: All animal used were treated in accordance with the Animal Care and Use Committee guideline at Taipei Veterans General Hospital. Adult Sprague-Dawley rats (8 weeks old, 250 g) were anesthetized with intraperitoneal phenobarbital (Sigma, USA). The location of their brains was mapped: then, the brain was surgically separated from the hippocampus region with the procedure. Tissues from the hippocampus of the adult SD rats were dissociated and incubated in Hank's balanced salt solution (HB'SS) containing collagenase (78 units/ml) and hyaluronidase (38 units/ml) for 10 mins at 37°C. The tissues were then mechanically dissected and placed in a trypsin solution (1.33 mg/ml) at 37°C for another 10 mins. Dissociated cells were then centrifuged at 150g for 5 mins. […] Viable cells were counted by trypan blue exclusion and plated as 5000 cells/200 µL per well in 96-well plates (Corning, Acton, MA) with no substrate pretreatment. […]
An avidin-biotin complex method was used for the immunohistochemical staining in the differentiated NSCs. […] Immunoreactive signals were detected with a mixture of biotinylated rabbit antimouse IgG and Fluoesave (Calbiochem, La Jolla, CA, USA) under immunofluorescent microscope (Olympus FV300).

The next data set deals with c-FLIP. Kind of data set: c-FLIP mRNA expression in fluoxetine-treated NSCs (real-time RT-PCR). Format: cell-based, Sprague-Dawley rats. Conditions: FL-treated NSCs. As for the experimental part: All animal used were treated in accordance with the Animal Care and Use Committee guideline at Taipei Veterans General Hospital. Adult Sprague-Dawley rats (8 weeks old, 250 g) were anesthetized with intraperitoneal phenobarbital (Sigma, USA). The location of their brains was mapped: then, the brain was surgically separated from the hippocampus region with the procedure. Tissues from the hippocampus of the adult SD rats were dissociated and incubated in Hank's balanced salt solution (HB'SS) containing collagenase (78 units/ml) and hyaluronidase (38 units/ml) for 10 mins at 37°C. The tissues were then mechanically dissected and placed in a trypsin solution (1.33 mg/ml) at 37°C for another 10 mins. Dissociated cells were then centrifuged at 150g for 5 mins. […] Viable cells were counted by trypan blue exclusion and plated as 5000 cells/200 µL per well in 96-well plates (Corning, Acton, MA) with no substrate pretreatment.
For real-time RT-PCR, the total RNA was extracted using the RNAeasy kit (Qiagen, Valencia, CA, USA) as previously described C.L. Kao et al., Mod Pathol 18 (2005) 769-778.[15]. […] The quantification in the unknown samples was performed by the LightCycler Relative Quantification Software version 3.3 (Roche Molecular Systems, Alameda, CA, USA). […]
Background: Real-time PCR tracks product formation cycle by cycle.

The test system of data set [7] is inactive caspases 8 (pro-form). Kind of data set: Protein level of inactive caspase 8 (pro-form) in fluoxetine-treated NSCs. In kind it is cell-based, Sprague-Dawley rats. Conditions: different concentrations of fluoxetine treatment. The procedure: (§1) All animal used were treated in accordance with the Animal Care and Use Committee guideline at Taipei Veterans General Hospital. Adult Sprague-Dawley rats (8 weeks old, 250 g) were anesthetized with intraperitoneal phenobarbital (Sigma, USA). The location of their brains was mapped: then, the brain was surgically separated from the hippocampus region with the procedure. Tissues from the hippocampus of the adult SD rats were dissociated and incubated in Hank's balanced salt solution (HB'SS) containing collagenase (78 units/ml) and hyaluronidase (38 units/ml) for 10 mins at 37°C. The tissues were then mechanically dissected and placed in a trypsin solution (1.33 mg/ml) at 37°C for another 10 mins. Dissociated cells were then centrifuged at 150g for 5 mins. The enzyme solution was then removed and replaced with serum-free culture media composed of Dulbecco modified Eagle medium (DMEM) and F-12 nutrient (1:1) including insulin (25 µg/mL), transferrin (100 µg/mL), progesterone (20 nM), putrescine (60µM), sodium selenite (30 nM), and human […] epidermal growth factor (EGF) 20 ng/mL and fibroblast growth factor-basic (bFGF) 20 ng/mL (R&D Systems, Minneapolis, MN). Viable cells were counted by trypan blue exclusion and plated as 5000 cells/200 µL per well in 96-well plates (Corning, Acton, MA) with no substrate pretreatment. […]

The subject of a further data set is c-FLIP promoter. Kind of data set: c-FLIP promoter luciferase assay in fluoxetine-treated NSCs. Format: cell-based, Sprague-Dawley rats. The settings on record: fluoxetine 20 µm; full-length and deletion mutants of the c-FLIP promoter in NSCs. As for the experimental part: as §1
The test system of data set [8] is inactive caspases 3 (pro-form). Kind of data set: Protein level of inactive caspase 3 (pro-form) in fluoxetine-treated NSCs. In kind it is cell-based, Sprague-Dawley rats. Conditions: different concentrations of fluoxetine treatment. As for the experimental part: as §1

Take `CCN1CCN(C(=O)N[C@@H](C(=O)N[C@@H]2C(=O)N3C(C(=O)O)=C(CSc4nnnn4C)CS[C@H]23)c2ccc(O)cc2)C(=O)C1=O` [cefoperazone]: the “cefoperazone in microdialysate from rat biliary duct” value in [1] is 27.8 µg/mL.
Regarding `N#CC(=C(/N)Sc1ccccc1N)/C(C#N)=C(\N)Sc1ccccc1N` [U0126], the “levels of IL-1β in LPS-treated NSCs with IM” value in the data set with IL-1β was “significantly increased”. Moreover, the “percentages of serotonin (5-HT)-positive cells in IM-treated NSCs” value in the data set on NSCs [2] is listed as “significantly decrease”. In the data set with IL-6, the “levels of IL-6 in LPS-treated NSCs with IM” value is on record as “significantly increased”. In the data set on NSCs [3], the “percentages of MAP-2-positive cells in IM-treated NSCs” value is “significantly decrease”. In addition, the “production of 5-HT of the IM-treated NSCs” value in the data set on NSCs [4] is recorded as “significantly diminished”. The “apoptotic activities (caspase 3) in LPS- and IM-treated NSCs” value with caspase 3 was “significantly enhanced”. For the same molecule, in the data set with caspase 8, the “apoptotic activities (caspase 8) in LPS- and IM-treated NSCs” value was “significantly enhanced”. Moreover, in the data set on LPS-treated NSCs [5], the “apoptotic activities (TUNEL) in LPS- and IM-treated NSCs” value was “significantly enhanced”. Further, the “levels of TNF-α in LPS-treated NSCs with IM” value with TNF-α is “significantly increased”. For the same molecule, in the data set on LPS-treated NSCs [6], the “cell viability in the LPS-treated NSCs with IM” value is reported as “dramatically decreased”. The “Bcl-2 expression induced by IM in NSCs” value with Bcl-2 protein is on record as “effectively blocked”.
In the case of `CNCCC(Oc1ccc(C(F)(F)F)cc1)c1ccccc1` (centres unmarked) [FL, fluoxetine], the “protein expression of c-FLIP” value in the data set on c-FLIPL is “up-regulated”. In addition, in the data set on c-FLIP, the “mRNA expression of c-FLIP” value was “up-regulated”. In [7], the “protein levels of inactive caspases 8 (pro-form)” value was “not decreased”. Moreover, the “activation of c-FLIP promoter (luciferase assay)” value in the data set with c-FLIP promoter is “c-FLIP promoter region from bp -414 to -133 was necessary for its activation by FL”. Further, in [8], the “protein levels of inactive caspases 3 (pro-form)” value is “not decreased”.
